The series is described as follows: UV absorption properties (λmax and specific absorbance E 1/1) of the light protection agents. In kind it is physicochemical. Further details: unit not given here. From the text:
Further Examples 2 to 23 as in Tables 1, 2 and 3 are obtained analogously. Substituents in the aromatic rings can also be introduced later.

Setting [1] is: Table 1, specific absorbance at λmax.
The mark [2] stands for this setting: Table 3, specific absorbance at λmax.
[3] abbreviates: Table 2, specific absorbance at λmax.

`COc1ccc2c(c1)NC(=C(C#N)C#N)N2` [Example 4]: for the setting “Table 1, UV absorption maximum”, the λmax is recorded as 326. In addition, the “E^11” value under setting [1] was determined as 1784.
On to `COC(=O)/C(C#N)=C1\Sc2ccccc2N1CCCS(=O)(=O)O` [Example 20], for which, for the setting “Table 3, UV absorption maximum”, the λmax turned out to be 340. The “E^11” value under setting [2] turned out to be 1200.
In the case of `COC(=O)C(C#N)=C1Nc2ccccc2O1` [Example 11], under “Table 1, UV absorption maximum”, the λmax was found to be 310. The “E^11” value under setting [1] is on record as 1778.
As for `COC(=O)C(C#N)=C1Nc2ccccc2S1` [Example 1], the λmax (Table 1, UV absorption maximum) is recorded as 336. Besides, under setting [1], the “E^11” value came to 1723.
With `Cc1ccc2c(c1)NC(=C(C#N)C#N)N2` [Example 8], for the setting “Table 1, UV absorption maximum”, the λmax came to 318. Further, the “E^11” value under setting [1] came to 2055.
Under “Table 2, UV absorption maximum”, `CCCCCCN1C(=C(C#N)C(=O)OC)Sc2ccccc21` [Example 17] returned a λmax of 340. Under setting [3], the “E^11” value is 1200.
On to `COC(=O)C(C#N)=C1Nc2ccc(OC)cc2N1` [Example 5], for which, for the setting “Table 1, UV absorption maximum”, the λmax worked out at 328. Under setting [1], the “E^11” value amounted to 1601.
The molecule `CCCCOC(=O)C(C#N)=C1Sc2ccccc2N1CCCC` [Example 18] returned a λmax (Table 2, UV absorption maximum) of 340. For the same molecule, the “E^11” value under setting [3] is recorded as 1250.
For the setting “Table 1, UV absorption maximum”, `CCOC(=O)c1ccc2c(c1)NC(=C(C#N)C(=O)OC)N2` [Example 7] came in with a λmax of 332. Further, under setting [1], the “E^11” value came to 952.
For the setting “Table 2, UV absorption maximum”, `CCCCCCN1C(=C(C#N)C(=O)OCC(CC)CCCC)Sc2ccccc21` (stereo not shown) [Example 15] showed a λmax of 340. In addition, the “E^11” value under setting [3] was determined as 830.
Consider `CCOC(=O)c1ccc2c(c1)NC(=C(C#N)C#N)N2` [Example 6], for which the λmax (Table 1, UV absorption maximum) is recorded as 334. Besides, the “E^11” value under setting [1] was found to be 821.
The like results for `COC(=O)C(C#N)=C1Nc2ccc(C)cc2N1` [Example 9] were, in that order, 320 and 1854.
Take `CC1CC(OC(=O)C(C#N)=C2Sc3ccccc3N2C)CC(C)(C)C1` (stereo not shown) [Example 14]: the λmax (Table 2, UV absorption maximum) amounted to 340. For the same molecule, under setting [3], the “E^11” value was determined as 1090.
Taken in the same sequence, the figures for `CCCCCCN1C(=C(C#N)C(=O)OC2CC(C)CC(C)(C)C2)Sc2ccccc21` (stereo not shown) [Example 16] were 340 and 790.
The molecule `COC(=O)C(C#N)=c1[nH]c2cccc3cccc([nH]1)c32` [Example 24] returned a λmax (Table 3, UV absorption maximum) of 296. In addition, under setting [2], the “E^11” value was determined as 1503.
`COC(=O)C(C#N)=C1Nc2ccccc2N1` [Example 3] came in with a λmax (Table 1, UV absorption maximum) of 316. Also, the “E^11” value under setting [1] turned out to be 1986.
`CN1/C(=C(\C#N)C(=O)OCCS(=O)(=O)O)Sc2ccccc21` [Example 23] registered a λmax (Table 3, UV absorption maximum) of 340. Besides, the “E^11” value under setting [2] came to 1160.
With `N#CC(C#N)=C1Nc2ccccc2O1` [Example 10], where the note is “Table 1, UV absorption maximum”, the λmax is reported as 308. Also, the “E^11” value under setting [1] stood at 1844.
The like results for `N#CC(C#N)=C1Nc2ccccc2S1` [Example 12] were, in that order, 334 and 1776.
As to `CCCCCCN1C(=C(C#N)C(=O)OC)N(CCCCCC)c2ccccc21` [Example 22], under “Table 3, UV absorption maximum”, the λmax is 325. Besides, the “E^11” value under setting [2] is listed as 970.
Turning to `N#CC(C#N)=C1Nc2ccccc2N1` [Example 2], the λmax (Table 1, UV absorption maximum) is reported as 314. The “E^11” value under setting [1] is on record as 2297.
`CCCCC(CC)COC(=O)/C(C#N)=C1\Sc2ccccc2N1C` (stereo not shown) [Example 13] displayed a λmax (Table 2, UV absorption maximum) of 340. Moreover, the “E^11” value under setting [3] worked out at 1150.
Under “Table 3, UV absorption maximum”, `COC(=O)/C(C#N)=C1\Nc2ccc(C(=O)c3ccccc3)cc2N1` [Example 21] returned a λmax of 348. Besides, under setting [2], the “E^11” value was 740.

The values above are taken from patent US6603014B1, “Use of cyclic enamines as light protection agents” (BASF Aktiengesellschaft, priority 1999, dated 2003).
